The cell lines below were run with COC1=CC=C(C=C1)COC2=C(C=C(C=C2)CC3=CN=C(N=C3N)N)OC [GW-2580] + CS(=O)(=O)N1CCN(Cc2cc3nc(-c4cccc5[nH]ncc45)nc(N4CCOCC4)c3s2)CC1 [Pictilisib] (partner 1 µM) (assay: relative viability (nuclei count vs DMSO), 5 days (fraction); higher = more cells survive). Details: first compound 2.53 µM.
How it was run: (§1)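 Nuclei were stained with Hoechst during a one-step fixation (final 0.05% Triton X-100, 1% formaldehyde, 1 ug/ml Hoechst) carried out 5 days after dosing, then counted on 4× images. The cells, lung cancer lines in 1536-well plates, had been dosed by pin tool the day after seeding with one drug alone or a fixed anchor-drug dose plus five library-drug doses (not always all listed) in √10 steps. Relative viability is the nuclei count in treated wells divided by that in vehicle wells, and each value is the median of duplicate plates.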

Cell Line	relative viability
PC-3 [JPC-3]	0.716

Same assay, conditions: first compound 8 µM

Cell Line	relative viability
EPLC-272H	0.262
NCI-H2228	0.417
NCI-H1792	0.223
NCI-H1355	0.421
NCI-H3122	0.576
NCI-H1437	0.387
NCI-H1755	0.372
NCI-H2023	0.216
HCC-15	0.677
NCI-H1793	0.254
PC-14	0.725
EKVX	0.5
LC-2-ad	0.413
NCI-H1944	0.278
NCI-H1975	0.29
RERF-LC-KJ	0.515
NCI-H358	0.308
NCI-H650	0.78
PC-3 [JPC-3]	0.68

The cell lines below were run with Cc1cnc(Nc2ccc(OCCN3CCCC3)cc2)nc1Nc1cccc(S(=O)(=O)NC(C)(C)C)c1 [Fedratinib] + CC(=O)Nc1cccc(-n2c(=O)n(C3CC3)c(=O)c3c(Nc4ccc(I)cc4F)n(C)c(=O)c(C)c32)c1 [Trametinib] (partner 0.02 µM) in the same assay as above. Details: first compound 0.1 µM.
How it was run: as §1

Cell Line	relative viability
EPLC-272H	0.275
NCI-H2228	0.629
NCI-H1792	0.365
NCI-H1355	0.442
NCI-H3122	0.242
NCI-H1437	0.492
NCI-H1755	0.822
NCI-H2023	0.588
HCC-15	0.393
NCI-H1793	0.493
PC-14	0.692
EKVX	0.333
LC-2-ad	0.898
NCI-H1944	0.448
NCI-H1975	0.344
RERF-LC-KJ	0.787
NCI-H358	0.126
NCI-H650	1.04
PC-3 [JPC-3]	0.561

Same assay, conditions: first compound 0.3162 µM

Cell Line	relative viability
EPLC-272H	0.281
NCI-H2228	0.306
NCI-H1792	0.364
NCI-H1355	0.387
NCI-H3122	0.205
NCI-H1437	0.561
NCI-H1755	0.696
NCI-H2023	0.626
HCC-15	0.365
NCI-H1793	0.399
PC-14	0.871
EKVX	0.293
LC-2-ad	0.904
NCI-H1944	0.422
NCI-H1975	0.234
RERF-LC-KJ	0.813
NCI-H358	0.125
NCI-H650	1.04
PC-3 [JPC-3]	0.757

Same assay, conditions: first compound 1 µM

Cell Line	relative viability
EPLC-272H	0.278
NCI-H2228	0.404
NCI-H1792	0.449
NCI-H1355	0.412
NCI-H3122	0.193
NCI-H1437	0.564
NCI-H1755	0.73
NCI-H2023	0.488
HCC-15	0.357
NCI-H1793	0.416
PC-14	0.554
EKVX	0.363
LC-2-ad	0.933
NCI-H1944	0.42
NCI-H1975	0.304
RERF-LC-KJ	0.858
NCI-H358	0.111
NCI-H650	0.869
PC-3 [JPC-3]	0.655

The cell lines below were run with Cc1cnc(Nc2ccc(OCCN3CCCC3)cc2)nc1Nc1cccc(S(=O)(=O)NC(C)(C)C)c1 [Fedratinib] + CS(=O)(=O)CCNCc1ccc(-c2ccc3ncnc(Nc4ccc(OCc5cccc(F)c5)c(Cl)c4)c3c2)o1 [Lapatinib] (partner 2 µM) in the same assay as above. Details: first compound 0.1 µM.
How it was run: as §1

Cell Line	relative viability
EPLC-272H	0.958
NCI-H2228	1.04
NCI-H1792	0.879
NCI-H1355	0.734
NCI-H3122	1.04
NCI-H1437	0.821
NCI-H1755	1.02
NCI-H2023	0.897
HCC-15	0.879
NCI-H1793	0.628
PC-14	0.261
EKVX	0.209
LC-2-ad	1.06
NCI-H1944	0.816
NCI-H1975	1.02
RERF-LC-KJ	0.879
NCI-H358	0.366
PC-3 [JPC-3]	0.422

Same assay, conditions: first compound 0.3162 µM

Cell Line	relative viability
EPLC-272H	1.01
NCI-H2228	1.07
NCI-H1792	0.905
NCI-H1355	1.04
NCI-H3122	0.966
NCI-H1437	0.827
NCI-H1755	1
NCI-H2023	0.75
HCC-15	0.876
NCI-H1793	0.61
PC-14	0.351
EKVX	0.206
LC-2-ad	0.983
NCI-H1944	0.803
NCI-H1975	0.922
RERF-LC-KJ	0.844
NCI-H358	0.369
NCI-H650	1.07
PC-3 [JPC-3]	0.446

Same assay, conditions: first compound 1 µM

Cell Line	relative viability
EPLC-272H	0.119
NCI-H2228	0.22
NCI-H1792	0.827
NCI-H1355	0.962
NCI-H3122	0.555
NCI-H1437	0.19
NCI-H1755	0.942
NCI-H2023	0.083
HCC-15	0.446
NCI-H1793	0.311
PC-14	0.249
EKVX	0.252
LC-2-ad	0.104
NCI-H1944	0.615
NCI-H1975	0.163
RERF-LC-KJ	0.838
NCI-H358	0.334
NCI-H650	0.347
PC-3 [JPC-3]	0.412

The cell lines below were run with Cc1cnc(Nc2ccc(OCCN3CCCC3)cc2)nc1Nc1cccc(S(=O)(=O)NC(C)(C)C)c1 [Fedratinib] + C[C@]1(O)C[C@@H](c2nc(-c3ccc4ccc(-c5ccccc5)nc4c3)c3c(N)nccn32)C1 [Linsitinib] (partner 1 µM) in the same assay as above. Details: first compound 0.1 µM.
How it was run: as §1

Cell Line	relative viability
EPLC-272H	1.45
NCI-H2228	0.609
NCI-H1792	0.611
NCI-H1355	0.684
NCI-H3122	1.02
NCI-H1437	1.03
NCI-H1755	0.995
NCI-H2023	0.603
HCC-15	0.755
NCI-H1793	0.937
PC-14	0.927
EKVX	1.09
LC-2-ad	0.838
NCI-H1944	1.28
NCI-H1975	0.897
RERF-LC-KJ	0.805
NCI-H358	0.565
PC-3 [JPC-3]	0.924

Same assay, conditions: first compound 0.3162 µM

Cell Line	relative viability
EPLC-272H	0.983
NCI-H2228	0.837
NCI-H1792	0.547
NCI-H1355	0.822
NCI-H3122	1.01
NCI-H1437	0.978
NCI-H1755	1
NCI-H2023	0.673
HCC-15	0.719
NCI-H1793	0.857
PC-14	1.03
EKVX	0.967
LC-2-ad	0.85
NCI-H1944	1.12
NCI-H1975	0.929
RERF-LC-KJ	0.906
NCI-H358	0.597
NCI-H650	0.994
PC-3 [JPC-3]	0.932

Same assay, conditions: first compound 1 µM

Cell Line	relative viability
EPLC-272H	0.993
NCI-H2228	0.543
NCI-H1792	0.542
NCI-H1355	0.796
NCI-H3122	0.948
NCI-H1437	0.884
NCI-H1755	0.885
NCI-H2023	0.601
HCC-15	0.734
NCI-H1793	0.899
PC-14	0.92
EKVX	0.982
LC-2-ad	0.71
NCI-H1944	1.1
NCI-H1975	0.872
RERF-LC-KJ	0.855
NCI-H358	0.53
NCI-H650	0.596
PC-3 [JPC-3]	0.951

Source: the supplement of paper PMC10307832
